Data reported in ChEMBL document CHEMBL1201862, “PubChem BioAssay data set” (2004).
Calls of active or inactive are those of the source.

Assays:
[1] = bead-based luminescence quenchers, dual-tagged ARNT – biochemical, AlphaScreen, cherry-pick, artefact control for ARNT-TACC3 interaction inhibitor project, dose response (AID 651705); type: functional;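 note: AlphaScreen bead proximity signal that flags compounds interfering with the detection technology; potency reflects signal decrease which marks the compound as an assay artifact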
Melanocortin receptor 4 = Melanocortin receptor 4 (Homo sapiens, UniProt P32245); experiment: inhibitors of MC4R cAMP signaling – cell-based, TR-FRET, biased antagonists, dose response (AID 602298); type: functional;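 note: antagonist potency against agonist-stimulated cAMP production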
Sequence of Melanocortin receptor 4 (P32245 whole entry): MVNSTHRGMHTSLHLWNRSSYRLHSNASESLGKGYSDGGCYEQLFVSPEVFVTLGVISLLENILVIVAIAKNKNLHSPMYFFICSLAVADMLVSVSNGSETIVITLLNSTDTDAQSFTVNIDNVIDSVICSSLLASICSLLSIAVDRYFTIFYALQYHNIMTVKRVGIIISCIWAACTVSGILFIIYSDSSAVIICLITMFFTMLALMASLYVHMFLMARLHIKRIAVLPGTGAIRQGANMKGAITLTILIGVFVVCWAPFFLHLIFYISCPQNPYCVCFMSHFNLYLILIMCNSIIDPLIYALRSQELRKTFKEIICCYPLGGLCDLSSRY

[2] = cAMP pathway inhibition in counterscreen cell line – TR-FRET cAMP detection, counter-screen for MC4R biased antagonist project, dose response (AID 602305); type: functional, cell-based;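 note: U2OS cells stimulated with forskolin near its EC80 as the cAMP inducer; potency is for inhibition of forskolin-stimulated cAMP signaling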
[3] = biological target: T1, High affinity choline transporter 1 (Homo sapiens, UniProt Q9GZV3); experiment: human choline transporter blockers, potency – cell-based, 10-point CRC, membrane potential dye, dose response (AID 588401); type: functional;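 note: membrane potential dye fluorescence of choline-evoked depolarization via CHT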
T1 sequence (Q9GZV3 whole entry): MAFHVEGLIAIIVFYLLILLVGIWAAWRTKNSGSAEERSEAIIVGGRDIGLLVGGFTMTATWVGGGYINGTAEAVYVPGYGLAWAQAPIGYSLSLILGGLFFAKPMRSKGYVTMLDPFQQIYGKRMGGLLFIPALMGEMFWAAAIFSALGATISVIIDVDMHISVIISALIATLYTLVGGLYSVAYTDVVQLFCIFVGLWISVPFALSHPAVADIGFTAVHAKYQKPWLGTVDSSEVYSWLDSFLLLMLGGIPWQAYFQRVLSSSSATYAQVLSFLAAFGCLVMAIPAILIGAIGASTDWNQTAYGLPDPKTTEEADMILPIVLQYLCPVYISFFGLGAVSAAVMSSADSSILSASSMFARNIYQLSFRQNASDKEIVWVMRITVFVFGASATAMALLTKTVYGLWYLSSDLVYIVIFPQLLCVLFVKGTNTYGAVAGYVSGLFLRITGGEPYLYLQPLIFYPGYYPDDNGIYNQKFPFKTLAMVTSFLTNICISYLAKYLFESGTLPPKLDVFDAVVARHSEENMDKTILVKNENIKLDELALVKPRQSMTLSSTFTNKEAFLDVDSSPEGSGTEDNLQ

[4] = A cytotoxicity screen of small molecule inhibitors of the PhoP region in Salmonella typhi identified in the primary screen. [Related pubchem assays: 1850, 1864, 1985 ]; type: functional
[5] = biological target: T1, High affinity choline transporter 1; experiment: human choline transporter blockers, potency – cell-based, 5-point CRC, membrane potential dye, dose response (AID 504840); type: functional
[6] = biological target: T2, Sentrin-specific protease 8 (Homo sapiens, UniProt Q96LD8); type: functional
T2 sequence (Q96LD8 whole entry): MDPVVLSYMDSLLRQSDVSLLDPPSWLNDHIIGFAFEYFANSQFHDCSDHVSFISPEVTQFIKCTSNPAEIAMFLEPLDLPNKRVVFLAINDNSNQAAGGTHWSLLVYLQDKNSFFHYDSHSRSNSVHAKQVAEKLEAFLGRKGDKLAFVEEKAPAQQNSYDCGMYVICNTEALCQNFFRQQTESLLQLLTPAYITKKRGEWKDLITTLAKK

[7] = biological target: T2, Sentrin-specific protease 8; type: functional; remark: listed apart in the source
[8] = potency of ADAM10 substrate cleavage blockers – biochemical, QFRET, dose response (AID 743254);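 note: ADAM10 enzyme with the DM2 quenched FRET peptide as substrate; EDANS fluorescence gain as the protease cuts the substrate; inhibitor potency against ADAM10 proteolytic activity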
[9] = biological target: Induced myeloid leukemia cell differentiation protein Mcl-1 (Homo sapiens, UniProt Q07820); type: functional
[10] = biological target: DNA (cytosine-5)-methyltransferase 1 (Homo sapiens, UniProt P26358); experiment: inhibition of DNA methylation by DNMT1 – biochemical, fluorescent molecular beacon, confirmation (AID 602386); type: functional
Streptococcus = experiment: GAS UMAA2166 growth inhibition – luminescence, BacTiterGlo, counter-screen for streptokinase expression inhibitor project, dose response (AID 1915); type: functional, organism-based;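 note: potency for reduction of bacterial viability or growth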
[11] = Luminescence Cell-Based Dose Retest to Confirm Inhibitors of Cancer Stem Cells. [Related pubchem assays (depositor defined):AID2717, AID2721]; type: functional; conditions: Homo sapiens
[12] = biological target: Disintegrin and metalloproteinase domain-containing protein 17 (Homo sapiens, UniProt P78536); experiment: inhibition of ADAM17 substrate cleavage – biochemical, quenched FRET substrate, counter-screen for ADAM10 exosite inhibitor project, dose response (AID 743253)
Sequence of Disintegrin and metalloproteinase domain-containing protein 17 (P78536 whole entry, the tested form may be a part): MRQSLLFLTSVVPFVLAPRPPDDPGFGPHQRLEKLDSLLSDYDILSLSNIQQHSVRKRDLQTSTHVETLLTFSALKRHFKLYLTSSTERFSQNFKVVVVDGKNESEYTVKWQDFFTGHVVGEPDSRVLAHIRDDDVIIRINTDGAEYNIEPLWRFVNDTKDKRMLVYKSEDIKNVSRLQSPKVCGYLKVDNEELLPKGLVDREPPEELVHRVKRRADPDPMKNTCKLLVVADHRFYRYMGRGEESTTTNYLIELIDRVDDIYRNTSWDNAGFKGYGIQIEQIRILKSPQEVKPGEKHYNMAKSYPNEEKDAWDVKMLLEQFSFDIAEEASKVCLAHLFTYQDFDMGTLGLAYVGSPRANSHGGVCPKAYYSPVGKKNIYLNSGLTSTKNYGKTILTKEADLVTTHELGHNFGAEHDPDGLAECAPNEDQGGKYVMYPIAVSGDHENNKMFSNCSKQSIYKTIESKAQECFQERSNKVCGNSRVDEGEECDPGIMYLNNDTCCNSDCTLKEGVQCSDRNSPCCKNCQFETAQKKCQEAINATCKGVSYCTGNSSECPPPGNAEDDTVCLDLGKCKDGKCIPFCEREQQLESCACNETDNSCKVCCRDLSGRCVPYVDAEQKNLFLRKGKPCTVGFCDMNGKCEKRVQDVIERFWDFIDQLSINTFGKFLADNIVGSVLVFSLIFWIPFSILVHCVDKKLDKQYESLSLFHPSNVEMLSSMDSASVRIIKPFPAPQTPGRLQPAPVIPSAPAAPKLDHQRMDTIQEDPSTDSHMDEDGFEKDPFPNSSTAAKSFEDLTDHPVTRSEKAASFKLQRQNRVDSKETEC

[13] = system: Streptococcus sp. 'group A'; experiment: Streptococcus pyogenes SK(-)GAS viability under kanamycin – luminescence, BacTiterGlo, confirmation, counter-screen for streptokinase expression inhibitor project, dose response (AID 1900); type: functional, organism-based
[14] = biological target: T3, Apoptotic protease-activating factor 1 (Homo sapiens, UniProt O14727); experiment: SAR analysis of small molecule Activators of Apaf-1 in a Fluorescent assay.; type: functional; conditions: read-out: EC50_Mean;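 note: caspase-3 cleavage of fluorogenic Rh110 DEVD substrate downstream of apoptosome activation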
T3 sequence (O14727 whole entry): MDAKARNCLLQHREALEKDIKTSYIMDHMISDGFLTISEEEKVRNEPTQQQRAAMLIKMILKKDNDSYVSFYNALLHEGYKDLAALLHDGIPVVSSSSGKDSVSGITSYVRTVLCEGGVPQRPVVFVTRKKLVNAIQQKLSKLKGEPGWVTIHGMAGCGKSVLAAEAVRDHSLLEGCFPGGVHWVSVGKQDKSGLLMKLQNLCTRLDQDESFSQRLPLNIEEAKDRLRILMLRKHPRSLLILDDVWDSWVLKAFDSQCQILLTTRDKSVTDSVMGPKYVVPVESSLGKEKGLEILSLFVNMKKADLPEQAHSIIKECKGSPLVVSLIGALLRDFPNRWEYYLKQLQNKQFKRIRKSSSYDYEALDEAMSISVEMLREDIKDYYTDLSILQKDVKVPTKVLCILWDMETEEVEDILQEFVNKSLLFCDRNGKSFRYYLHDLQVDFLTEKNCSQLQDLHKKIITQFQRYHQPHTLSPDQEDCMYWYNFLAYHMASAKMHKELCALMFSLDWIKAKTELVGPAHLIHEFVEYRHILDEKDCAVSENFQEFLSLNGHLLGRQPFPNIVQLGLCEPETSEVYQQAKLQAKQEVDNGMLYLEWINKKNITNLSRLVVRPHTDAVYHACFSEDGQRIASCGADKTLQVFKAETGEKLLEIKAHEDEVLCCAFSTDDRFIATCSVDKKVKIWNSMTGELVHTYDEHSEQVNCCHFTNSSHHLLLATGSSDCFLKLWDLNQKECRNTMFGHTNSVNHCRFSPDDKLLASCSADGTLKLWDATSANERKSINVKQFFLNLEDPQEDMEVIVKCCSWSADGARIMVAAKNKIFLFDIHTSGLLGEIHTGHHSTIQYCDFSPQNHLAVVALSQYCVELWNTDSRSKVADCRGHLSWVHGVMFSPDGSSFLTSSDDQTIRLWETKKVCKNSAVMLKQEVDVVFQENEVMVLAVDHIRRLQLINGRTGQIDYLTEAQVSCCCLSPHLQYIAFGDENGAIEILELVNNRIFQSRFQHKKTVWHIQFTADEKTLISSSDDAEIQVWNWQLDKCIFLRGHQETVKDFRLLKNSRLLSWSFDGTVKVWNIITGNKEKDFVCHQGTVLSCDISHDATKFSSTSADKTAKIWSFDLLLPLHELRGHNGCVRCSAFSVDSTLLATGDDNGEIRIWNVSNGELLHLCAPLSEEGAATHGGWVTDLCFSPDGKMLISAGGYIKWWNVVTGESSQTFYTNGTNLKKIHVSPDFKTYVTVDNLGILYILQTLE

[15] = Vero cell cytotoxicity, cytotoxicity control for M. tuberculosis inhibitor project, purified and synthesized samples, set 3 (AID 504684); type: functional
[16] = Fluorescence-based cell-based high throughput dose response assay for inhibitors of the interaction of nucleotide-binding oligomerization domain containing 2 (NOD2) and the receptor-interacting serine-threonine kinase 2 (RIPK2).; type: functional; conditions: Homo sapiens
Vero = experiment: cells; type: functional; conditions: Chlorocebus sabaeus
[17] = biological target: Aryl hydrocarbon receptor (Homo sapiens, UniProt P35869); conditions: Potency;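 note: confirmatory quantitative high-throughput screen measuring activation of the AhR signaling pathway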
Sequence of Aryl hydrocarbon receptor (P35869 whole entry): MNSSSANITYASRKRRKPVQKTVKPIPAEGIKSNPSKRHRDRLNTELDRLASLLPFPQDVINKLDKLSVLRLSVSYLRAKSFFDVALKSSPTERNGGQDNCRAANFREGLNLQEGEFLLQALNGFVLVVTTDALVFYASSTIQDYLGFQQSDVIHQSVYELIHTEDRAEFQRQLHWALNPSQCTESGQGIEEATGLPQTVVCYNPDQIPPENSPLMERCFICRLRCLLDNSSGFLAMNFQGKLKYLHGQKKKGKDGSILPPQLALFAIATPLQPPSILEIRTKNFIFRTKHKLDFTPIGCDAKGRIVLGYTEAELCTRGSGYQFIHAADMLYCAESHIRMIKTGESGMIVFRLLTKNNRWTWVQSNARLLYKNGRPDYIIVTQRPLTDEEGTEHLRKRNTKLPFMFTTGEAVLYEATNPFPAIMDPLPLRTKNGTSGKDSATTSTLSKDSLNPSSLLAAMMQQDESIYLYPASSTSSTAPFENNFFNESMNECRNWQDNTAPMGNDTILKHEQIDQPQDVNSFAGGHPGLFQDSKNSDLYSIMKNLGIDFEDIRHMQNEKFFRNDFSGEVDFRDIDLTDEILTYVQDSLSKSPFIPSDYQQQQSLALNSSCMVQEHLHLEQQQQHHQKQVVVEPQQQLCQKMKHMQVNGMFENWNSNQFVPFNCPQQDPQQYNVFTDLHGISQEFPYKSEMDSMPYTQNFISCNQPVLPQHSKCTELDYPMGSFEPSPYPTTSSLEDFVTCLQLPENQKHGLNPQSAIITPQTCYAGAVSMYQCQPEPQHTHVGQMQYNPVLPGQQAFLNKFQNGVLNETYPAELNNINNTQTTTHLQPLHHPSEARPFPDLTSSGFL

[18] = biological target: T4, Low molecular weight phosphotyrosine protein phosphatase (Homo sapiens, UniProt P24666); type: functional; conditions: read-out: IC50_Mean
T4 sequence (P24666 whole entry): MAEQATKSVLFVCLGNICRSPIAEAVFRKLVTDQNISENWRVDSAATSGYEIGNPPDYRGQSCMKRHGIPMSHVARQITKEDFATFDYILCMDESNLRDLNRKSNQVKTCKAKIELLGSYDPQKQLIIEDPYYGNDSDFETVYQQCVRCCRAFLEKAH

[19] = biological target: T4, Low molecular weight phosphotyrosine protein phosphatase; type: functional; conditions: read-out: IC50_Mean; remark: listed apart in the source
[20] = biological target: T5, ATP-dependent translocase ABCB1 (Homo sapiens, UniProt P08183); experiment: inhibition of BCRP-mediated JC-1 efflux – Ig-MXP3 cells, flow cytometry, set 2, dose response (AID 504566); type: functional; conditions: read-out: EC50_MICROM_;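 note: flow cytometry median green fluorescence of retained JC-1 dye; potency of efflux pump inhibition measured as rising substrate retention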
T5 sequence (P08183 whole entry): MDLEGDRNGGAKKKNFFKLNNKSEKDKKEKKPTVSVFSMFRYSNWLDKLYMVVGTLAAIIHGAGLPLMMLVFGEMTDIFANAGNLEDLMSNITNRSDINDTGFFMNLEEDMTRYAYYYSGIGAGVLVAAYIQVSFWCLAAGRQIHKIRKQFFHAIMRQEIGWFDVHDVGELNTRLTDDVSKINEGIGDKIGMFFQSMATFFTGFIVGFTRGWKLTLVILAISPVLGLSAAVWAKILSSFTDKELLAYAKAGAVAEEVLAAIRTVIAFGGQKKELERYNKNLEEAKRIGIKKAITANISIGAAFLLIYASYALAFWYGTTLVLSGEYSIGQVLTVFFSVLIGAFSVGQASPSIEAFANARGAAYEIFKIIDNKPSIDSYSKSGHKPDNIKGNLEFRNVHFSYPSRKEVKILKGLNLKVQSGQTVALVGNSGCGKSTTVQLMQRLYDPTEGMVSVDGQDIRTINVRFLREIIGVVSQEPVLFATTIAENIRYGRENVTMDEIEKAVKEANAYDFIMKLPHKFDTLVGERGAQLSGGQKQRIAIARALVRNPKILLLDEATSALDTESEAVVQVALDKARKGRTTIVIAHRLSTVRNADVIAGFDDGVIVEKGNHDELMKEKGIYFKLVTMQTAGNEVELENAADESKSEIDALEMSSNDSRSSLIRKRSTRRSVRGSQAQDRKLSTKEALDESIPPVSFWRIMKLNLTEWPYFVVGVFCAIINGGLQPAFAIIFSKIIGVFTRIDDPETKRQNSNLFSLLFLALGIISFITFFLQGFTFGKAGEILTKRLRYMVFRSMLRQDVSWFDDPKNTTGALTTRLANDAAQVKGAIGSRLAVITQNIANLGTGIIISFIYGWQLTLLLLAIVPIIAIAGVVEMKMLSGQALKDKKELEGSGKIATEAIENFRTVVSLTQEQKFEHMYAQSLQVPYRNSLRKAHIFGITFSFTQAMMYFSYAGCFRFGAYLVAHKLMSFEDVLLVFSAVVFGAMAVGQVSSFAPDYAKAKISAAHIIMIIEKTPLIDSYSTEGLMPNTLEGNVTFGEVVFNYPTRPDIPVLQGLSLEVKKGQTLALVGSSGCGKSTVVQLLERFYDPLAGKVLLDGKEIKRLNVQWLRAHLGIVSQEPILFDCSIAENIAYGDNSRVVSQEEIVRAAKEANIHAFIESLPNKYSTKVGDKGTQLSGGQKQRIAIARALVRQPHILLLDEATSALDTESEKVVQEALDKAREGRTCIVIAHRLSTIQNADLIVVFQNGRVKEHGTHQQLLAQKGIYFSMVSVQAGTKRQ

[21] = biological target: T5, ATP-dependent translocase ABCB1; experiment: P-gp JC-1 efflux blockade concentration-response – Jurkat-DNR cells, flow cytometry, set 2, dose response (AID 504569); type: functional; conditions: read-out: EC50_MICROM_;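 note: potency of pump inhibitors that raise cellular JC-1 green fluorescence up to the nicardipine level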
[22] = biological target: Adenosylmethionine-8-amino-7-oxononanoate aminotransferase (Mycobacterium tuberculosis, UniProt P9WQ81); experiment: Mycobacterium tuberculosis BioA enzyme inhibitor Measured in Biochemical System Using Plate Reader - 2163-02_Inhibitor_Dose_CherryPick_Activity.; type: functional, Mycobacterium tuberculosis UT205
[23] = biological target: Dual specificity protein kinase CLK4 (Homo sapiens, UniProt Q9HAZ1); type: functional
Sequence of Dual specificity protein kinase CLK4 (Q9HAZ1 whole entry): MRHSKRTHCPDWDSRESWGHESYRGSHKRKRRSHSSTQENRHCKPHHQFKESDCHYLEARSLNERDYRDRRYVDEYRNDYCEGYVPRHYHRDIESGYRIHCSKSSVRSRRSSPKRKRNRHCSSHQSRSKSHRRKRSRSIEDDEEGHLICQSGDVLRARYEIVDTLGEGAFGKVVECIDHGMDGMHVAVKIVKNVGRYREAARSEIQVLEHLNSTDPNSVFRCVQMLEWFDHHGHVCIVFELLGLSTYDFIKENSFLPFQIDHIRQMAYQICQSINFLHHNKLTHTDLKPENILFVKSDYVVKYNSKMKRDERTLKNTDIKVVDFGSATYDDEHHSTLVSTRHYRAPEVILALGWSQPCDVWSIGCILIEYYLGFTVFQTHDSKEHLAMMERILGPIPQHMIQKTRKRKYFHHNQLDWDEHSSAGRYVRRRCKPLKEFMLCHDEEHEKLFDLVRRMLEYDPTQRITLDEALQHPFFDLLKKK

[24] = biological target: Serine/threonine-protein kinase pim-1 (Homo sapiens, UniProt P11309); type: functional
[25] = biological target: Cell division cycle 7-related protein kinase (Homo sapiens, UniProt O00311); type: functional;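 note: value obtained from a kinome-wide kinase panel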
[26] = biological target: Glycogen synthase kinase-3 beta (Homo sapiens, UniProt P49841); type: functional;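 note: value comes from a broad kinome profiling panel, with GSK3B as the panel member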
[27] = biological target: Mitogen-activated protein kinase kinase kinase kinase 4 (Homo sapiens, UniProt O95819); type: functional
Sequence of Mitogen-activated protein kinase kinase kinase kinase 4 (O95819 whole entry): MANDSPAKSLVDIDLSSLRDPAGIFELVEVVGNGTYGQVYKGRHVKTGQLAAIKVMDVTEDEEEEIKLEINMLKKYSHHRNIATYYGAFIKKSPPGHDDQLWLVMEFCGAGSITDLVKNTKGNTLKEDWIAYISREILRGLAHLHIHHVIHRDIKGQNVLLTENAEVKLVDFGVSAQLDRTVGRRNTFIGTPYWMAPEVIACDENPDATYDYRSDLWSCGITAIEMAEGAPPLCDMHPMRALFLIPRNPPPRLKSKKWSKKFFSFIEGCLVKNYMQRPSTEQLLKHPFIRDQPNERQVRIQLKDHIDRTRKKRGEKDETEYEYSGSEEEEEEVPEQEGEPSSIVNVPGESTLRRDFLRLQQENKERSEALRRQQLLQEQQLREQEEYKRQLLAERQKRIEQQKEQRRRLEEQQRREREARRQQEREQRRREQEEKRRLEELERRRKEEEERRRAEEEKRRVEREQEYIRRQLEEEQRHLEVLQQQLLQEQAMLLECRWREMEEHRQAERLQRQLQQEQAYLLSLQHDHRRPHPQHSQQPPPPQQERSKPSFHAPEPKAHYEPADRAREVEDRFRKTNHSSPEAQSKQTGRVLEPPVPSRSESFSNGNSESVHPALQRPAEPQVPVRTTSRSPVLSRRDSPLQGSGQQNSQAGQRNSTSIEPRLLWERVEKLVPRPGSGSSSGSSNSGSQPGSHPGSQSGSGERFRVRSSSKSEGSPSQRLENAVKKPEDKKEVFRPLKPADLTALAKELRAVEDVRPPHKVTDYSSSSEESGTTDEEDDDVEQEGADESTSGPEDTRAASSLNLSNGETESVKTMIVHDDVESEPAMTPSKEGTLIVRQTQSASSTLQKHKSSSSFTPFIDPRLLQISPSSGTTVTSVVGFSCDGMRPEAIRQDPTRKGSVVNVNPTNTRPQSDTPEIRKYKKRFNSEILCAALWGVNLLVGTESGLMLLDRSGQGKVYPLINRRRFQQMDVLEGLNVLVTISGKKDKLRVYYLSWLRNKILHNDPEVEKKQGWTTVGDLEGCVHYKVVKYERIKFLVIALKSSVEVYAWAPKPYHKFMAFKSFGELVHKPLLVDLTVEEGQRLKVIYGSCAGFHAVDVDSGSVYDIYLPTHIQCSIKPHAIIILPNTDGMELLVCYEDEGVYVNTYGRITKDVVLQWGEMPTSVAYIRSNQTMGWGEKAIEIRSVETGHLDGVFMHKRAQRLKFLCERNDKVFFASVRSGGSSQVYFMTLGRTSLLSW

[28] = biological target: T6, Interleukin-1 receptor-associated kinase 4 (Homo sapiens, UniProt Q9NWZ3); type: functional
T6 sequence (Q9NWZ3 whole entry): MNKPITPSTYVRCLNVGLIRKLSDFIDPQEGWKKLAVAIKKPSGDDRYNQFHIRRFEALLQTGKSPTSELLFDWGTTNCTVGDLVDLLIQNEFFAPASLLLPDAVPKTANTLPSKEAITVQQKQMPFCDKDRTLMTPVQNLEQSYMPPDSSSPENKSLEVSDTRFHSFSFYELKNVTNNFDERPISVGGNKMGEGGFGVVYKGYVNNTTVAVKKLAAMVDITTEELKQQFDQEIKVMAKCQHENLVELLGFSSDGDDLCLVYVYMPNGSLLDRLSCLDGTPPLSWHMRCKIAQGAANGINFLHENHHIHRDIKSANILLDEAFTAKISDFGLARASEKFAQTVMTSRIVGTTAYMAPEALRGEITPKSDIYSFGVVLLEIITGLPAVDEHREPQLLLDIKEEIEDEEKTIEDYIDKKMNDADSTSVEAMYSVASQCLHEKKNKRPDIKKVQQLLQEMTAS

[29] = biological target: Homeodomain-interacting protein kinase 2 (Homo sapiens, UniProt Q9H2X6); type: functional;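 note: measured within a kinome-wide kinase profiling panel, HIPK2 being one panel member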
[30] = biological target: MAP kinase-interacting serine/threonine-protein kinase 2 (Homo sapiens, UniProt Q9HBH9); type: functional
[31] = biological target: cAMP-dependent protein kinase catalytic subunit alpha (Homo sapiens, UniProt P17612); type: functional

With `O=C(COc1ccccc1)Nc1nnc(-c2ccco2)o1` the AC50 [1] was 95 µM (active).
In the case of `COc1cc2c(cc1NC(=O)COC(=O)CNS(=O)(=O)c1ccc(C)cc1)oc1ccccc12`, the IC50 (Melanocortin receptor 4) is reported as > 64.6 µM (inactive) and the IC50 [2] is reported as > 64.6 µM (inactive).
With `O=C(On1c(-c2ccccc2)nc2ccccc2c1=O)c1ccco1` the IC50 [3] was 8.91 µM (active), the EC50 [4] was > 50 µM (active) and the IC50 [5] was 4.57 µM (active).
In the case of `CCOc1cc(C(c2c(C)[nH][nH]c2=O)c2c(C)[nH][nH]c2=O)ccc1OS(=O)(=O)c1ccccc1`, the IC50 [6] is reported as 20.9 µM (active) and the IC50 [7] is reported as 33.2 µM (active).
With `Cc1ccc(C2C(/C=C3/SC(=S)NC3=O)=C(c3cccs3)Oc3ccccc32)cc1` (stereo not drawn) the IC50 [8] was 16.7 µM (inactive), the IC50 [9] was 3.63 µM (active) and the IC50 [10] was 3.74 µM (active). The EC50 (Streptococcus) was 1.11 µM (active), the AC50 [11] was 0.874 µM (active) and the IC50 [12] was 33.7 µM (inactive). For the same compound, the EC50 [13] was 0.649 µM (active).
With `CCOc1ccc(C(=O)CC(C(=O)O)c2cn(C)c3ccccc23)cc1` (stereo not drawn) the EC50 [14] was > 100 µM (inactive).
In the case of `Cc1cc(NS(=O)(=O)c2ccc(NC(=O)c3ccc(Cl)cc3Cl)cc2)no1`, the IC50 [3] is reported as 4.47 µM (active) and the IC50 [5] is reported as 5.81 µM (active).
In the case of `Cc1ccc(S(=O)(=O)NCC(=O)OCc2nnc(-c3ccccc3)o2)cc1`, the IC50 (Melanocortin receptor 4) is reported as > 64.6 µM (inactive) and the IC50 [2] is reported as > 64.6 µM (inactive).
For `O=C(CSc1nccc(O)n1)Nc1ccc(Oc2ccccc2)cc1`, the CC50 [15] was > 100 µM (active).
In the case of `O=C1Nc2ccccc2/C1=C\C(=O)c1ccccc1`, the IC50 [16] is reported as 5 µM (active) and the CC50 (Vero) is reported as > 25 µM (active).
With `O=C=Nc1ccc(Cl)c(Cl)c1` the AC50 [17] was 56.2 µM (inconclusive).
For `CCc1nc(N)nc(N)c1-c1ccc(Cl)c(N=[N+]=[N-])c1`, the IC50 [18] was 24.2 µM (inactive) and the IC50 [19] was 14.3 µM (active).
In the case of `O=C(c1ccoc1)N1CCN(c2cc(-c3ccccc3F)nc3cc(-c4cccc(Cl)c4)nn23)CC1`, the EC50 [20] is reported as 1.59 µM (active) and the EC50 [21] is reported as 5.75 µM (active).
In the case of `CC(=O)c1ccc(NC(=O)COC(=O)Cc2ccsc2)cc1`, the AC50 [22] is reported as 6.97 µM (active).
With `Nc1n[nH]c2ccc(-c3cc(Cc4ccccc4)no3)cc12` the Ki [23] was 0.01 µM (active), the Ki [24] was > 10 µM (inactive) and the Ki [25] was 0.0316 µM (active). The Ki [26] was 0.158 µM (active), the Ki [27] was 0.501 µM (active) and the Ki [28] was 6.31 µM (active). The Ki [29] was 1.58 µM (active), the Ki [30] was 1 µM (active) and the Ki [31] was 0.316 µM (active).
